Results from US20250163057A1, “DCN-1 MODULATING COMPOUNDS AND METHODS OF USE THEREOF” (Cellarity, Inc., priority 2023, published 2025).
Like-named read-outs stand apart in the source and are kept apart here.

Columns and labels:
[1] = biological target: DCN1 (DCUND1) protein PONY domain (Homo sapiens (Human), UniProt Q96GG9); assay: TR-FRET assay, DCN1 binding with FAM-labeled probe
Procedure, shortened: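 Biotinylated DCN1 PONY domain, labeled with streptavidin-Tb, was competed against a FAM-labeled non-covalent DCN1 inhibitor probe in buffer with TritonX and 200 mM NaCl. Conditions were 5 nM DCN1 with 20 nM FAM-probe, or 0.31 nM DCN1 with 100 nM FAM-plus 800 nM unlabeled probe. The TR-FRET ratio was read at 1, 5 and 24 h (0.1% DMSO).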

[2] = tested on: fetal hemoglobin gene HBG1; assay: HBG1 Nanostring Assay in CD34+ HSPC erythroid differentiation culture; type: cell-based, human; details: for EC50: Homo sapiens, 240 h, HBG1 induction, Day10 of erythroid differentiation; for Nanostring Ymax obs (%): relative to a control compound (C1)
Procedure, shortened: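 CD34+ HSPCs were dosed from day −2 (0.1% DMSO) through two-phase erythroid differentiation (EPO, transferrin, SCF, IL-3, insulin; IL-3 removed from day 7) at 37° C, 5% CO2. Day-10 lysates of 100K cells were hybridized at 67° C for 22 h for nCounter counting, normalized to ERCC and housekeeping controls. EC50 and Ymax were derived, with Ymax relative to a control compound.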

[3] = tested on: Cullin-3 (CUL3) neddylation; assay: AlphaLISA assay for Cullin-3 (CUL3) neddylation in TF 1 cells; type: cell-based; details: Homo sapiens, TF-1, 3 h, 3 hours treatment
Procedure, shortened: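 TF 1 cells in unsupplemented IMDM treated with compound concentrations for 3 h, then lysed. CUL3 neddylation detected by AlphaLISA (biotinylated anti-NEDD8, anti-CUL3 acceptor beads overnight, streptavidin donor beads 1 h); normalized to vehicle (0%) and 1 μM DI-1548 (100%), IC50 from Hill fits.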

DCN1 protein = DCN1 protein (Homo sapiens (Human), UniProt Q96GG9); assay: Intact Protein MS Analysis with the RapidFire-TOF System (covalent adduct formation); type: binding; details: MS Emax; 400 nM DCN1, 3 hours at room temperature
Procedure, shortened: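 Tag-cleaved human DCN1 (400 nM) expressed in E. coli, in 25 mM Tris-HCl, 200 mM NaCl, 1 mM DTT, was incubated with 11 compound concentrations for 3 h at room temperature and quenched with 0.2% formic acid. Intact-protein Q-TOF MS with deconvolution detected the compound adduct mass.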

[4] = 24 hr after treatment with compound, read-out: TR FRET IC50 24 hr
[5] = TR FRET IC50 1 hr (nM), 1 hr after treatment with compound
[6] = read-out: TR FRET IC50 1 hr, 1 hr after treatment with compound

DCN1 (DCUND1) protein PONY domain, sequence (Q96GG9 60-248): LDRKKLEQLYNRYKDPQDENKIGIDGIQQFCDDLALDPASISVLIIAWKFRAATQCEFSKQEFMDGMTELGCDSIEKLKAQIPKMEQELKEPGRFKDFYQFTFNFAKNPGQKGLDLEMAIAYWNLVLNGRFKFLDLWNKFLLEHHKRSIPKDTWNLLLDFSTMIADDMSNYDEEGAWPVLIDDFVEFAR
DCN1 protein, sequence (Q96GG9 whole entry): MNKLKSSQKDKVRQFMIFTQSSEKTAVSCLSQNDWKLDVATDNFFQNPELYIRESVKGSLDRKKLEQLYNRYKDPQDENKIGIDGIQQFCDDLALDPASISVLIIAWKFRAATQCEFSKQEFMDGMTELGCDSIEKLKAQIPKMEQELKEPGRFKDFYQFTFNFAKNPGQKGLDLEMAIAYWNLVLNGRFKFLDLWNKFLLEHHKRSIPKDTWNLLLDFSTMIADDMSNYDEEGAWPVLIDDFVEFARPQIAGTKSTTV

Row | Compound | IC50 [1, 4] [nM] | IC50 [1, 5] [nM] | EC50 [2] [nM] | Nanostring Ymax obs (%) [2] | IC50 [3] [nM] | % Adduct Formation (DCN1 protein) | IC50 [1, 6] [nM]
1 | CCN1C(=O)[C@@H](NC(=O)c2cccc(C(F)(F)F)c2)[C@@H](c2ccc(F)cc2)c2c(CNC(=O)C#CCN(C)C)nn(-c3ccccc3)c21 (racemic) [Compound I-19, rac-N-((4R,5R)-3-((4-(dimethylamino)but-2-ynamido)methyl)-7-ethyl-4-(4-fluorophenyl)-6-oxo-1-phenyl-4,5,6,7-tetrahydro-1H-pyrazolo[3,4-b]pyridine-5-yl)-3-(trifluoromethyl)benzamide] | ≤ 200 | ≤ 200 | ≤ 100 | +++ (Nanostring Ymax greater than 100.0) | ≤ 100 | +++ (MS Emax % adduct formation greater than 80.0 and less than or equal to 100.0) | –
2 | C=C(C)C(=O)Nc1nn(-c2ccccc2)c2c1[C@H](c1ccc(F)cc1)[C@H](NC(=O)c1cccc(C(F)(F)F)c1)C(=O)N2CC (racemic) [Compound I-26] | ≤ 200 | – | 100 to 1000 | ++ (Nanostring Ymax greater than 50.0 and less than or equal to 100.0) | 100 to 1000 | + (MS Emax % adduct formation greater than or equal to 0.0 and less than or equal to 30.0) | ≤ 200
3 | C/C=C(\CN1CCOCC1)C(=O)NCc1nn(-c2ccccc2)c2c1[C@@H](c1ccc(F)cc1)[C@H](NC(=O)c1cccc(C(F)(F)F)c1)C(=O)N2CC (racemic) [Compound I-27] | ≤ 200 | – | 100 to 1000 | ++ (Nanostring Ymax greater than 50.0 and less than or equal to 100.0) | ≤ 100 | + (MS Emax % adduct formation greater than or equal to 0.0 and less than or equal to 30.0) | ≤ 200
4 | C=CC(=O)N(C)Cc1nn(-c2ccccc2)c2c1[C@H](c1ccc(F)cc1)[C@H](NC(=O)c1cccc(C(F)(F)F)c1)C(=O)N2CC (racemic) [Compound I-29] | 1000 to 3000 | 1000 to 3000 | > 1000 | + (Nanostring Ymax greater than or equal to 0.0 and less than or equal to 50.0) | > 1000 | + (MS Emax % adduct formation greater than or equal to 0.0 and less than or equal to 30.0) | –
5 | C=C(CN1CCC(F)(F)C1)C(=O)NCc1nn(-c2ccccc2)c2c1[C@H](c1ccc(F)cc1)[C@@H](NC(=O)c1cccc(C(F)(F)F)c1)C(=O)N2CC (racemic) [Compound I-32] | ≤ 200 | – | 100 to 1000 | ++ (Nanostring Ymax greater than 50.0 and less than or equal to 100.0) | ≤ 100 | + (MS Emax % adduct formation greater than or equal to 0.0 and less than or equal to 30.0) | ≤ 200
6 | C=C(C(=O)OCC)c1nn(-c2ccccc2)c2c1[C@H](c1ccc(F)cc1)[C@H](NC(=O)c1cccc(C(F)(F)F)c1)C(=O)N2CC (racemic) [Compound I-35, rac-ethyl 2-((4R,5R)-7-ethyl-4-(4-fluorophenyl)-6-oxo-1-phenyl-5-(3-(trifluoromethyl)benzamido)-4,5,6,7-tetrahydro-1H-pyrazolo[3,4-b]pyridine-3-yl)acrylate] | ≤ 200 | > 3000 | 100 to 1000 | + (Nanostring Ymax greater than or equal to 0.0 and less than or equal to 50.0) | 100 to 1000 | + (MS Emax % adduct formation greater than or equal to 0.0 and less than or equal to 30.0) | –
7 | CCN1C(=O)[C@@H](NC(=O)c2cccc(C(F)(F)F)c2)[C@@H](c2ccc(F)cc2)c2c(CNC(=O)C3(C#N)CC3)nn(-c3ccccc3)c21 (racemic) [Compound I-37, rac-N-((4R,5R)-3-((1-cyanocyclopropane-1-carboxamido)methyl)-7-ethyl-4-(4-fluorophenyl)-6-oxo-1-phenyl-4,5,6,7-tetrahydro-1H-pyrazolo[3,4-b]pyridine-5-yl)-3-(trifluoromethyl)benzamide] | 1000 to 3000 | 1000 to 3000 | > 1000 | + (Nanostring Ymax greater than or equal to 0.0 and less than or equal to 50.0) | 100 to 1000 | + (MS Emax % adduct formation greater than or equal to 0.0 and less than or equal to 30.0) | –
8 | CC#CC(=O)Nc1nn(-c2ccccc2)c2c1[C@H](c1ccc(F)cc1)[C@H](NC(=O)c1cccc(C(F)(F)F)c1)C(=O)N2CC (racemic) [Compound I-51] | 200 to 1000 | 200 to 1000 | 100 to 1000 | +++ (Nanostring Ymax greater than 100.0) | 100 to 1000 | + (MS Emax % adduct formation greater than or equal to 0.0 and less than or equal to 30.0) | –
9 | C=C(C(=O)O)c1nn(-c2ccccc2)c2c1[C@H](c1ccc(F)cc1)[C@H](NC(=O)c1cccc(C(F)(F)F)c1)C(=O)N2CC (racemic) [Compound I-53, rac-2-((4R,5R)-7-ethyl-4-(4-fluorophenyl)-6-oxo-1-phenyl-5-(3-(trifluoromethyl)benzamido)-4,5,6,7-tetrahydro-1H-pyrazolo[3,4-b]pyridine-3-yl)acrylic acid] | 200 to 1000 | 1000 to 3000 | > 1000 | +++ (Nanostring Ymax greater than 100.0) | 100 to 1000 | ++ (MS Emax % adduct formation greater than 30.0 and less than or equal to 80.0) | –
10 | C=C(CN1CCOCC1)C(=O)NCc1nn(-c2ccccc2)c2c1[C@@H](c1ccc(F)cc1)[C@H](NC(=O)c1cccc(C(F)(F)F)c1)C(=O)N2CC (racemic) [Compound I-58] | ≤ 200 | – | > 1000 | + (Nanostring Ymax greater than or equal to 0.0 and less than or equal to 50.0) | ≤ 100 | + (MS Emax % adduct formation greater than or equal to 0.0 and less than or equal to 30.0) | ≤ 200
11 | C/C=C/C(=O)Nc1nn(-c2ccccc2)c2c1[C@H](c1ccc(F)cc1)[C@H](NC(=O)c1cccc(C(F)(F)F)c1)C(=O)N2CC (racemic) [Compound I-62] | 200 to 1000 | – | > 1000 | + (Nanostring Ymax greater than or equal to 0.0 and less than or equal to 50.0) | 100 to 1000 | + (MS Emax % adduct formation greater than or equal to 0.0 and less than or equal to 30.0) | ≤ 200
12 | CCN1C(=O)[C@@H](NC(=O)c2cccc(C(F)(F)F)c2)[C@@H](c2ccc(F)cc2)c2c(NC(=O)C3=CCCC3)nn(-c3ccccc3)c21 (racemic) [Compound I-65] | 200 to 1000 | – | > 1000 | ++ (Nanostring Ymax greater than 50.0 and less than or equal to 100.0) | ≤ 100 | + (MS Emax % adduct formation greater than or equal to 0.0 and less than or equal to 30.0) | ≤ 200
13 | C=C(CN1CCOCC1)C(=O)Nc1nn(-c2ccccc2)c2c1[C@H](c1ccc(F)cc1)[C@H](NC(=O)c1cccc(C(F)(F)F)c1)C(=O)N2CC (racemic) [Compound I-75] | ≤ 200 | – | – | +++ (Nanostring Ymax greater than 100.0) | ≤ 100 | +++ (MS Emax % adduct formation greater than 80.0 and less than or equal to 100.0) | ≤ 200
14 | CCN1C(=O)[C@@H](NC(=O)c2cccc(C(F)(F)F)c2)[C@H](c2ccc(F)cc2)c2c(CNC(=O)C3=C(C(=O)OC)CC3)nn(-c3ccccc3)c21 (racemic) [Compound I-97] | 200 to 1000 | – | 100 to 1000 | ++ (Nanostring Ymax greater than 50.0 and less than or equal to 100.0) | ≤ 100 | + (MS Emax % adduct formation greater than or equal to 0.0 and less than or equal to 30.0) | ≤ 200
